Reference: ChEMBL document CHEMBL4483862, “Open-source discovery of chemical leads for next-generation chemoprotective antimalarials” (2018)

Test system: Plasmodium berghei
Assay: Luciferase/luciferin-expressing antifolate-resistant parasites were used to infect a culture of HepG2 cells that were pre-incubated with compounds. Infected hepatocytes emit light due to the luciferase reaction. Assay results are presented as the percent inhibition of light emission compared to control. […]
Assay type: functional
Details: sporozoite; for IC90: read-out: LUCIFERASE INFECTION ASSAY - IC90
[1] = read-out: LUCIFERASE INFECTION ASSAY - IC50

SMILES | IC90 [µM] | IC50 [1] [µM] | further results
COc1ccc2c(C(=O)N/N=C/c3cc(Br)c4ccccc4c3O)cccc2c1 | 3.64 | – | IC50 (FFLUC_HILL_SLOPE 0.529, FFLUC_R_SQUARED 0.712, HEPG2TOX_HILL_SLOPE 1.8, HEPG2TOX_R_SQUARED 0.756, PBLUC_HILL_SLOPE 12.3, PBLUC_R_SQUARED 0.402, read-out: LUCIFERASE INFECTION ASSAY - IC50): 3.05 µM
Cc1c(C)c(C)c(S(=O)(=O)Nc2ccc(Oc3ccc(Cl)cc3)cc2)c(C)c1C | > 7.68 | – | IC50 (PBLUC_HILL_SLOPE 11, PBLUC_R_SQUARED 0.0118, read-out: LUCIFERASE INFECTION ASSAY - IC50): > 7.68 µM
N=S(=O)(c1ccc(Cl)cc1)c1cccs1 (stereo unspecified) | > 12.8 | > 12.8 | –
COc1ccc(-c2noc(CN3CCN(C(=O)c4nn(-c5cccc(Cl)c5)nc4C)CC3)n2)cc1 | > 10 | – | IC50 (HEPG2TOX_HILL_SLOPE 14.4, HEPG2TOX_R_SQUARED 0.481, PBLUC_HILL_SLOPE 15.9, PBLUC_R_SQUARED 0.0941, read-out: LUCIFERASE INFECTION ASSAY - IC50): 9.11 µM
O=C(Nc1ccc2c[nH]nc2c1)c1cccc(Oc2ccccc2)c1 | > 10 | > 10 | –
CC(C)Oc1cccc(Nc2ncc(C(=O)c3cccc(-c4ccncc4)c3)[nH]2)c1 | 3.9 | – | IC50 (HEPG2TOX_HILL_SLOPE 3.28, HEPG2TOX_R_SQUARED 0.825, PBLUC_HILL_SLOPE 4.08, PBLUC_R_SQUARED 0.607, read-out: LUCIFERASE INFECTION ASSAY - IC50): 2.27 µM
O=C1C=CC(=O)N1c1ccc(F)c(Cl)c1 | > 14.6 | – | IC50 (FFLUC_HILL_SLOPE 2.09, FFLUC_R_SQUARED 0.475, HEPG2TOX_HILL_SLOPE 6.94, HEPG2TOX_R_SQUARED 0.217, PBLUC_HILL_SLOPE 8.9, PBLUC_R_SQUARED 0.496, read-out: LUCIFERASE INFECTION ASSAY - IC50): 13.6 µM
Cc1cc(CSc2nnc(CN3CCCCC3)n2-c2ccc(F)cc2)on1 | > 10 | > 10 | –
OCCNCc1cc(Br)ccc1OCc1ccc(F)cc1 | 3.12 | – | IC50 (PBLUC_HILL_SLOPE 16.8, PBLUC_R_SQUARED 0.362, read-out: LUCIFERASE INFECTION ASSAY - IC50): 2.74 µM
COc1ccccc1N(Cc1ccccc1)S(=O)(=O)c1cccc(C(=O)NC2CC(C)(C)NC(C)(C)C2)c1 | 9.9 | – | IC50 (PBLUC_HILL_SLOPE 145, PBLUC_R_SQUARED 0.235, read-out: LUCIFERASE INFECTION ASSAY - IC50): 9.75 µM
C=C1CC(=O)N(c2ccc(OC(F)(F)F)cc2)C1=O | > 12.2 | > 12.2 | –
O=C(Nc1ccc(Oc2ccccc2)cc1)c1csc(C(O)c2cccc(Cl)c2)n1 (stereo unspecified) | 5.62 | – | IC50 (HEPG2TOX_HILL_SLOPE 2.05, HEPG2TOX_R_SQUARED 0.879, PBLUC_HILL_SLOPE 3.47, PBLUC_R_SQUARED 0.401, read-out: LUCIFERASE INFECTION ASSAY - IC50): 2.99 µM
CC(=O)c1ccc(N2CCN(Cc3ccc(C)s3)CC2)cc1 | > 10.5 | > 10.5 | –
Cc1ccc(N2C(=O)/C(=C/c3ccc(C(C)C)cc3)N=C2SCc2cccc(S(=O)(=O)N(C)C)c2)cc1 | > 10 | – | IC50 (FFLUC_HILL_SLOPE 2.29, FFLUC_R_SQUARED 0.777, PBLUC_HILL_SLOPE 2.35, PBLUC_R_SQUARED 0.372, read-out: LUCIFERASE INFECTION ASSAY - IC50): 6.97 µM
Cn1c(-c2ccc(Cl)cc2)csc1=Nc1ccc(Cl)c(Cl)c1 | 3.46 | – | IC50 (FFLUC_HILL_SLOPE 8.54, FFLUC_R_SQUARED 0.841, PBLUC_HILL_SLOPE 1.64, PBLUC_R_SQUARED 0.468, read-out: LUCIFERASE INFECTION ASSAY - IC50): 0.91 µM
Cc1cccc(/C=C2\CC(C#N)(c3ccccc3)C/C(=C\c3cccc(C)c3)C2=O)c1 (stereo unspecified) | > 10 | – | IC50 (PBLUC_HILL_SLOPE 1.76, PBLUC_R_SQUARED 0.46, read-out: LUCIFERASE INFECTION ASSAY - IC50): 9.05 µM
Cc1oc(-c2ccc(Cl)cc2)cc1C(=O)Nc1cc(-c2cc(C(C)(C)C)oc2C)nn1-c1cc(C(F)(F)F)cc(C(F)(F)F)c1 | > 5.08 | – | IC50 (PBLUC_HILL_SLOPE 1.26, PBLUC_R_SQUARED 0.137, read-out: LUCIFERASE INFECTION ASSAY - IC50): > 5.08 µM
Cc1cc(S(=O)(=O)Oc2ccccc2C(N)=O)ccc1-n1cnnn1 | > 10 | – | IC50 (PBLUC_HILL_SLOPE 12.6, PBLUC_R_SQUARED 0.0652, read-out: LUCIFERASE INFECTION ASSAY - IC50): 9.07 µM
CC(=O)c1cccc(-c2cnc3ccc(-c4cccc(Oc5ccccc5)c4)nn23)c1 | > 10 | – | IC50 (HEPG2TOX_HILL_SLOPE 0.164, HEPG2TOX_R_SQUARED 0.772, PBLUC_HILL_SLOPE 1.12, PBLUC_R_SQUARED 0.566, read-out: LUCIFERASE INFECTION ASSAY - IC50): 1.9 µM
Cc1cc(C)nc(-n2nc(C)cc2Nc2ccccc2)n1 | > 10 | – | IC50 (PBLUC_HILL_SLOPE 12.8, PBLUC_R_SQUARED 0.114, read-out: LUCIFERASE INFECTION ASSAY - IC50): > 10 µM
CCn1c(SCCC(=O)Nc2cc(C)on2)nnc1-c1ccc(C(C)(C)C)cc1 | > 10 | > 10 | –
OCc1ccc(-c2cnc3ccc(-c4cccc(C(F)(F)F)c4)nn23)cc1 | > 10 | > 10 | –

SMILES | IC90 [µM] | IC50 [1] [µM] | further results
CC(=O)c1ccc(C#CCOC(=O)c2cccs2)s1 | > 11.4 | – | IC50 (PBLUC_HILL_SLOPE 2.26, PBLUC_R_SQUARED 0.405, read-out: LUCIFERASE INFECTION ASSAY - IC50): 5.72 µM
CC(C)Oc1cccc(-c2cn3c(-c4ccc(C(=O)NC5CC5)cc4)cnc3cn2)c1 | 7.18 | – | IC50 (PBLUC_HILL_SLOPE 5.31, PBLUC_R_SQUARED 0.43, read-out: LUCIFERASE INFECTION ASSAY - IC50): 4.75 µM
CCOC(=O)c1c(-c2csc(Nc3ccccn3)n2)c(C)n(CC)c1C | > 10 | – | IC50 (PBLUC_HILL_SLOPE 7.74, 2.96, PBLUC_R_SQUARED 0.584, 0.552, read-out: LUCIFERASE INFECTION ASSAY - IC50): 9.4 µM
Cc1ccc(-c2cnc3c(Nc4ccc(NS(=O)(=O)c5ccc(C)cc5)cc4)nccn23)cc1 | > 7.03 | – | IC50 (PBLUC_HILL_SLOPE 0.774, PBLUC_R_SQUARED 0.875, read-out: LUCIFERASE INFECTION ASSAY - IC50): 1.09 µM
O=C(Nc1nc2ccccc2[nH]1)c1oc2ccccc2c1COc1ccccc1 | > 10 | > 10 | –
CCn1c(NC(=O)CCc2ccc3c(c2)OCCO3)nc2ccccc21 | > 10 | – | IC50 (PBLUC_HILL_SLOPE 14.7, PBLUC_R_SQUARED 0.597, read-out: LUCIFERASE INFECTION ASSAY - IC50): 9.02 µM
Cc1cccc(NC(=O)c2ccc(Cl)c(S(=O)(=O)N3CCc4ccccc43)c2)n1 | > 10 | > 10 | –
COCCCn1c(Sc2ncnc3sc4c(c23)CCC4)nc2sc3c(c2c1=O)CCC3 | > 10 | > 10 | –
CCOC(=O)N/N=C(\CC)c1ccc(-c2ccccc2F)cc1 | > 10.5 | – | IC50 (HEPG2TOX_HILL_SLOPE 16.9, HEPG2TOX_R_SQUARED 0.877, PBLUC_HILL_SLOPE 3.23, PBLUC_R_SQUARED 0.461, read-out: LUCIFERASE INFECTION ASSAY - IC50): 6.06 µM
Cc1nnsc1C(=O)Nc1cc(C(F)(F)F)cc(C(F)(F)F)c1 | 1.4 | – | IC50 (HEPG2TOX_HILL_SLOPE 1.48, HEPG2TOX_R_SQUARED 0.897, PBLUC_HILL_SLOPE 8.57, PBLUC_R_SQUARED 0.681, read-out: LUCIFERASE INFECTION ASSAY - IC50): 1.08 µM
Clc1ccc(-c2csc(-c3nnc4n3-c3ccccc3SC4)n2)s1 | > 10 | – | IC50 (PBLUC_HILL_SLOPE 1, PBLUC_R_SQUARED 0.439, read-out: LUCIFERASE INFECTION ASSAY - IC50): 6.32 µM
COc1cc(NC(=O)Nc2ccc3nc(-c4ccoc4)nn3c2)cc(OC)c1OC | > 10 | > 10 | –
CC(OC(=O)c1ccc(C(C)C)cc1)C(=O)Nc1sccc1C(N)=O (stereo unspecified) | > 10 | > 10 | –
CCCc1cc(=O)n2nc(C)c(-c3ccc(Cl)cc3)c2[nH]1 | 4.98 | – | IC50 (PBLUC_HILL_SLOPE 10.5, PBLUC_R_SQUARED 0.468, read-out: LUCIFERASE INFECTION ASSAY - IC50): 4.03 µM
CCOC(=O)c1sc(-c2ccccc2)cc1NC(=O)COC(=O)c1c2c(nc3ccccc13)CCC(C)C2 (stereo unspecified) | > 10 | – | IC50 (FFLUC_HILL_SLOPE 0.238, FFLUC_R_SQUARED 0.508, read-out: LUCIFERASE INFECTION ASSAY - IC50): > 10 µM
CCN1C(=O)N(C2Cc3ccccc3C2)C(=O)C12CCN(Cc1ccc(-c3ccco3)cc1)CC2 | > 7.03 | – | IC50 (PBLUC_HILL_SLOPE 11.2, PBLUC_R_SQUARED 0.677, read-out: LUCIFERASE INFECTION ASSAY - IC50): 6.46 µM
CC1CCc2sc(C(=O)N(C)Cc3nc(=O)c4ccccc4[nH]3)cc2C1 (stereo unspecified) | 6.74 | – | IC50 (PBLUC_HILL_SLOPE 2.24, PBLUC_R_SQUARED 0.489, read-out: LUCIFERASE INFECTION ASSAY - IC50): 2.52 µM
O=C1C=C(NCc2ccccc2)CC(c2ccc(Cl)cc2)C1 (stereo unspecified) | > 10.6 | – | IC50 (HEPG2TOX_HILL_SLOPE 2.56, HEPG2TOX_R_SQUARED 0.714, PBLUC_HILL_SLOPE 1.97, PBLUC_R_SQUARED 0.212, read-out: LUCIFERASE INFECTION ASSAY - IC50): 6.81 µM
CCCc1c(C)[nH]c2[nH]n(-c3nc(C)cc(C)n3)c(=O)c2c1=O | > 10.5 | – | IC50 (PBLUC_HILL_SLOPE 2.87, PBLUC_R_SQUARED 0.443, read-out: LUCIFERASE INFECTION ASSAY - IC50): > 10.5 µM
CCCCn1c(N)c(-c2nc(CC(C)(C)C)c(C(=O)c3ccc(Br)s3)s2)c(=O)n(C)c1=O | > 10 | – | IC50 (PBLUC_HILL_SLOPE 0.7, PBLUC_R_SQUARED 0.683, read-out: LUCIFERASE INFECTION ASSAY - IC50): 2.73 µM
O=C(Nc1nnc[nH]1)C1(c2ccc(F)cc2)CC1 | > 10 | > 10 | –
